PubChem BioAssay AID1919015 (Molecular Pharmacology Branch, DTP, NCI, 2023)

Test system: OVCAR-5 complex spheroids with HUVEC/MSC, viability, % test/control
Experiment: Anticancer human tumor OVCAR-5 cell line growth inhibition [AhR];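 also: spheroids exposed to compounds for 7 days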;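 as to viability, T/C: 100% = DMSO vehicle control wells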
Conditions: for IC50: curve of first compound; for viability, T/C: stronger effect = lower value
Procedure, shortened: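 Agents were dosed in half-log steps down from roughly clinical Cmax, or from 10 microM where Cmax was unknown, alone and with AhR antagonists. Read-out: percent test/control growth of tumor spheroids containing HUVEC and MSC stromal cells.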

[1] = second compound 0.1 µM, first compound 0.0316 µM
[2] = second compound 0.1 µM, first compound 0.1 µM
[3] = second compound 0.1 µM, first compound 0.316 µM
[4] = second compound 0.1 µM, first compound 1 µM
[5] = second compound 0.1 µM, first compound 3.16 µM
[6] = second compound 0.1 µM, first compound 10 µM
[7] = second compound 0.316 µM, first compound 0.0316 µM
[8] = second compound 0.316 µM, first compound 0.1 µM
[9] = second compound 0.316 µM, first compound 0.316 µM
[10] = second compound 0.316 µM, first compound 1 µM
[11] = second compound 0.316 µM, first compound 3.16 µM
[12] = second compound 0.316 µM, first compound 10 µM
[13] = second compound 1 µM, first compound 0.0316 µM
[14] = second compound 1 µM, first compound 0.1 µM
[15] = second compound 1 µM, first compound 0.316 µM
[16] = second compound 1 µM, first compound 1 µM
[17] = second compound 1 µM, first compound 3.16 µM
[18] = second compound 1 µM, first compound 10 µM
[19] = second compound 3.16 µM, first compound 0.0316 µM
[20] = second compound 3.16 µM, first compound 0.1 µM
[21] = second compound 3.16 µM, first compound 0.316 µM
[22] = second compound 3.16 µM, first compound 1 µM
[23] = second compound 3.16 µM, first compound 3.16 µM
[24] = second compound 3.16 µM, first compound 10 µM
[25] = second compound 10 µM, first compound 0.0316 µM
[26] = second compound 10 µM, first compound 0.1 µM
[27] = second compound 10 µM, first compound 0.316 µM
[28] = second compound 10 µM, first compound 1 µM
[29] = second compound 10 µM, first compound 3.16 µM
[30] = second compound 10 µM, first compound 10 µM

Compound | IC50 (second compound 0.1 µM) | IC50 (second compound 0.316 µM) | IC50 (second compound 1 µM) | IC50 (second compound 3.16 µM) | IC50 (second compound 10 µM) | viability, T/C [1] | viability, T/C [2] | viability, T/C [3] | viability, T/C [4] | viability, T/C [5] | viability, T/C [6] | viability, T/C [7] | viability, T/C [8] | viability, T/C [9] | viability, T/C [10] | viability, T/C [11] | viability, T/C [12] | viability, T/C [13] | viability, T/C [14] | viability, T/C [15] | also measured
CC1(C)CCC(CN2CCN(c3ccc(C(=O)NS(=O)(=O)c4ccc(NCC5CCOCC5)c([N+](=O)[O-])c4)c(Oc4cnc5[nH]ccc5c4)c3)CC2)=C(c2ccc(Cl)cc2)C1 + CC(CO)NC(=O)c1cc(-c2ccc(Cl)cc2)nn(-c2cnn(C)c2)c1=O | > 10 µM | > 10 µM | > 10 µM | > 10 µM | > 10 µM | 107% | 107% | 109% | 113% | 118% | 51.4% | 111% | 107% | 113% | 114% | 118% | 50.6% | 115% | 116% | 122% | viability, T/C [16]: 120%; viability, T/C [17]: 122%; viability, T/C [18]: 53.8%; viability, T/C [19]: 102%; viability, T/C [20]: 106%; viability, T/C [21]: 104%; viability, T/C [22]: 111%; viability, T/C [23]: 114%; viability, T/C [24]: 53.8%; viability, T/C [25]: 100%; viability, T/C [26]: 102%; viability, T/C [27]: 104%; viability, T/C [28]: 104%; viability, T/C [29]: 106%; viability, T/C [30]: 57.6%
CC1COCCN1c1cc(C2(S(C)(=N)=O)CC2)nc(-c2ccnc3[nH]ccc23)n1 (stereo not given) + CC(CO)NC(=O)c1cc(-c2ccc(Cl)cc2)nn(-c2cnn(C)c2)c1=O | 9.07 µM | 9.9 µM | > 10 µM | 8.95 µM | 6.64 µM | 106% | 105% | 104% | 101% | 80.9% | 47.1% | 109% | 105% | 107% | 108% | 81.6% | 49.7% | 116% | 112% | 112% | viability, T/C [16]: 109%; viability, T/C [17]: 89.9%; viability, T/C [18]: 53%; viability, T/C [19]: 108%; viability, T/C [20]: 101%; viability, T/C [21]: 100%; viability, T/C [22]: 93.1%; viability, T/C [23]: 77.2%; viability, T/C [24]: 46.7%; viability, T/C [25]: 96.1%; viability, T/C [26]: 97.5%; viability, T/C [27]: 95.4%; viability, T/C [28]: 83.8%; viability, T/C [29]: 61.5%; viability, T/C [30]: 43.7%
